Reference: US11331341B2, “Combination therapies that enhance antimicrobial/anticancer activities” (International Business Machines Corporation, priority 2020, dated 2022)
In brackets after ≈: the same amount, converted by molar mass. Where two headings read alike, the source gives them in different places.

How the values were obtained:
BT474 cell line = assay: cells; settings: Homo sapiens, BT-474, read-out: absolute IC50 in treating BT474
Excerpt: Cytotoxicity graph 2100 regards treating BT474 solely with doxorubicin.

[1] = system: therapeutic-susceptible MCF7 cancer cells; assay: Cytotoxicity against therapeutic-susceptible MCF7; type: cell-based; settings: Homo sapiens
Protocol: (§1) Further, Table 2 regards anticancer activity against therapeutic-susceptible MCF7 cancer cells with an incubation time of 48 hours. For the combination therapies, the cancer cells were treated with the antimicrobial polymer for 4 hours followed by treatment with doxorubicin for 44 hours. Also, Table 3 regards anticancer activity against therapeutic-resistant MCF7 cancer cells with an incubation time of 48 hours. For the combination therapies, the cancer cells were treated with the antimicrobial polymer for 4 hours followed by treatment with doxorubicin for 44 hours.

[2] = system: therapeutic-resistant MCF7/ADR cell line; assay: Cytotoxicity against therapeutic-resistant MCF7/ADR; type: cell-based; settings: Homo sapiens
Protocol: as §1

[3] = system: therapeutic-resistant SK-OV-3-TR cell line; assay: Cytotoxicity against SK-OV-3-TR; type: cell-based; settings: SKOV3TR; FIG. 25; read-out: absolute IC50 in treating SK-OV-3-TR
Excerpt: Cytotoxicity graph 2500 regards treating SK-OV-3-TR solely with paclitaxel. […] Cytotoxicity graph 2502 regards treating SK-OV-3-TR solely with the example quaternary ammonium functionalized antimicrobial polymer 1402 (e.g., wherein “n” equals 21). […] Cytotoxicity graph 2504 regards treating SK-OV-3-TR solely with the example guanidinium functionalized antimicrobial polymer 1404 (e.g., wherein “m” equals 20). […] Cytotoxicity graph 2506 regards treating SK-OV-3-TR with a combination therapy of paclitaxel with 0.5 IC50 of the example quaternary ammonium functionalized antimicrobial polymer 1402 (e.g., wherein “n” equals 21). […] Cytotoxicity graph 2508 regards treating SK-OV-3-TR with a combination therapy of paclitaxel with 0.5 IC50 of example guanidinium functionalized antimicrobial polymer 1404 (e.g., wherein “m” equals 20).

[4] = system: MCR-1-positive E. coli strains; assay: Checkerboard assay / MIC, MCR-1-positive colistin-resistant E. coli; type: cell-based; settings: for MIC against MCR-1-positive E. coli: alone
Excerpt: Repetitive description of like elements employed in other embodiments described herein is omitted for sake of brevity.
Plasmid-mediated colistin-resistance has been reported in Gram-negative bacteria, which resulted from a MCR-1 enzyme that catalyzes the transfer of phosphoethanolamine to lipid A; thereby rendering the membrane more electropositive.

[5] = MCF7, FIG. 22 and FIG. 24, read-out: absolute IC50 in treating MCF7
[6] = NCI/ADR-RES, FIG. 23 and FIG. 24, read-out: absolute IC50 in treating MCF7/ADR

COc1cccc2c1C(=O)c1c(O)c3c(c(O)c1C2=O)C[C@@](O)(C(=O)CO)C[C@@H]3O[C@H]1C[C@H](N)[C@H](O)[C@H](C)O1 [DOX, doxorubicin]
IC50 (BT474 cell line): 8.42 µg/mL (≈ 15.5 µM) | IC50 [1, 5]: 0.15 µg/mL | IC50 ([1]; MCF7, incubation 48 hours, combinations: polymer for 4 hours followed by doxorubicin for 44 hours, read-out: Absolute IC50): 0.054 µg/mL | IC50 [2, 6]: 139 µg/mL | IC50 ([2]; therapeutic-resistant MCF7, incubation 48 hours, combinations: polymer for 4 hours followed by doxorubicin for 44 hours, read-out: Absolute IC50): 375 µg/mL

CC(=O)O[C@H]1C(=O)[C@@]2(C)[C@H]([C@H](OC(=O)c3ccccc3)[C@]3(O)C[C@H](OC(=O)[C@H](O)[C@@H](NC(=O)c4ccccc4)c4ccccc4)C(C)=C1C3(C)C)[C@]1(OC(C)=O)CO[C@@H]1C[C@@H]2O [paclitaxel]
IC50 [1, 5]: 19.7 µg/mL | IC50 [2, 6]: 5150 µg/mL | IC50 [3]: 27.4 µg/mL (≈ 32.1 µM)

colistimethate sodium
MIC against MCR-1-positive E. coli ([4]; first of two MCR-1-positive E. coli strains): 15.6 µg/mL | MIC against MCR-1-positive E. coli ([4]; second of two MCR-1-positive E. coli strains): 31.3 µg/mL

colistin
colistin MIC against MCR-1 colistin-resistant bacteria ([4]; with pQuat_20 at ½×MIC): < 0.49 µg/mL
